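Test compounds were applied to cells in 96-well plates for 48 hours at 5 doses. The concentration for 50% growth inhibition is given as GI50. Definition used: TGI = concentration required for complete inhibition of growth.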
Tests used:
Experiment in all cases: inhibition of tumour cell growth, NCI panel, 48 h
SR leukemia = system: SR leukemia
OVCAR-8 ovarian = system: OVCAR-8 ovarian
ACHN renal = system: ACHN renal
RXF 393 renal = system: RXF 393 renal
SW-620 colon = system: SW-620 colon
TK-10 renal = system: TK-10 renal
SN12C renal = system: SN12C renal
K-562 leukemia = system: K-562 leukemia
U251 CNS = system: U251 CNS
DU-145 prostate = system: DU-145 prostate
SF-539 CNS = system: SF-539 CNS
UACC-62 melanoma = system: UACC-62 melanoma
OVCAR-4 ovarian = system: OVCAR-4 ovarian
HCC-2998 colon = system: HCC-2998 colon
LOX IMVI melanoma = system: LOX IMVI melanoma
KM12 colon = system: KM12 colon
MOLT-4 leukemia = system: MOLT-4 leukemia
SK-MEL-2 melanoma = system: SK-MEL-2 melanoma
MCF7 breast = system: MCF7 breast
MDA-MB-435 = system: MDA-MB-435
A498 renal = system: A498 renal
HS 578T breast = system: HS 578T breast
RPMI-8226 leukemia = system: RPMI-8226 leukemia
OVCAR-3 ovarian = system: OVCAR-3 ovarian
CAKI-1 renal = system: CAKI-1 renal
M14 melanoma = system: M14 melanoma
SF-295 CNS = system: SF-295 CNS
NCI-H23 lung = system: NCI-H23 lung
IGROV1 ovarian = system: IGROV1 ovarian
NCI-H460 lung = system: NCI-H460 lung
NCI-H522 lung = system: NCI-H522 lung
UO-31 renal = system: UO-31 renal
UACC-257 melanoma = system: UACC-257 melanoma
MALME-3M melanoma = system: MALME-3M melanoma
MDA-MB-231 breast = system: MDA-MB-231 breast
HCT-15 colon = system: HCT-15 colon
OVCAR-5 ovarian = system: OVCAR-5 ovarian
SK-MEL-5 melanoma = system: SK-MEL-5 melanoma
PC-3 prostate = system: PC-3 prostate
HOP-92 NSCLC = system: HOP-92 NSCLC
HL-60(TB) leukemia = system: HL-60(TB) leukemia
NCI/ADR-RES ovarian = system: NCI/ADR-RES ovarian
BT-549 breast = system: BT-549 breast
HCT-116 colon = system: HCT-116 colon
A549 NSCLC = system: A549 NSCLC
CCRF-CEM leukemia = system: CCRF-CEM leukemia
NCI-H226 lung = system: NCI-H226 lung
786-0 renal = system: 786-0 renal
SF-268 CNS = system: SF-268 CNS
HOP-62 NSCLC = system: HOP-62 NSCLC
EKVX NSCLC = system: EKVX NSCLC

Molecule O=C1CSC(c2ccc(Cl)cc2Cl)N1c1ccc(F)cc1 (configuration not stated) has a GI50 (SR leukemia) of 19.6 µM, a TGI (SR leukemia) of 40.9 µM and a GI50 (OVCAR-8 ovarian) of 19 µM. For the same molecule, the TGI (OVCAR-8 ovarian) was 35.7 µM, the GI50 (ACHN renal) was 17.2 µM and the TGI (ACHN renal) was 31.1 µM. The GI50 (RXF 393 renal) was 27.4 µM, the TGI (RXF 393 renal) was 56 µM and the GI50 (SW-620 colon) was 21.7 µM. It also gave a TGI (SW-620 colon) of 37.5 µM, a GI50 (TK-10 renal) of 14.4 µM and a TGI (TK-10 renal) of 27.7 µM. The GI50 (SN12C renal) was 16.7 µM, the TGI (SN12C renal) was 30.6 µM and the GI50 (K-562 leukemia) was 19.8 µM. It also gave a TGI (K-562 leukemia) of 45.7 µM, a GI50 (U251 CNS) of 17.8 µM and a TGI (U251 CNS) of 31.7 µM. It also gave a GI50 (DU-145 prostate) of 16.1 µM, a TGI (DU-145 prostate) of 29.6 µM and a GI50 (SF-539 CNS) of 19.2 µM. The TGI (SF-539 CNS) was 33.4 µM, the GI50 (UACC-62 melanoma) was 16.2 µM and the TGI (UACC-62 melanoma) was 30.5 µM. It also gave a GI50 (OVCAR-4 ovarian) of 16.8 µM, a TGI (OVCAR-4 ovarian) of 31.9 µM and a GI50 (HCC-2998 colon) of 17.6 µM. For the same molecule, the TGI (HCC-2998 colon) was 31.5 µM, the GI50 (LOX IMVI melanoma) was 18.2 µM and the TGI (LOX IMVI melanoma) was 34 µM. The GI50 (KM12 colon) was 15.6 µM, the TGI (KM12 colon) was 29.8 µM and the GI50 (MOLT-4 leukemia) was 18.5 µM. The TGI (MOLT-4 leukemia) was 43.4 µM, the GI50 (SK-MEL-2 melanoma) was 18.9 µM and the TGI (SK-MEL-2 melanoma) was 38 µM. It also gave a GI50 (MCF7 breast) of 14 µM, a TGI (MCF7 breast) of 27 µM and a GI50 (MDA-MB-435) of 20.8 µM. For the same molecule, the TGI (MDA-MB-435) was 43 µM, the GI50 (A498 renal) was 15.9 µM and the TGI (A498 renal) was 29.8 µM. The GI50 (HS 578T breast) was 16.8 µM, the TGI (HS 578T breast) was 39.9 µM and the GI50 (RPMI-8226 leukemia) was 19.5 µM. It also gave a TGI (RPMI-8226 leukemia) of 42.7 µM, a GI50 (OVCAR-3 ovarian) of 17.2 µM and a TGI (OVCAR-3 ovarian) of 32.1 µM. It also gave a GI50 (CAKI-1 renal) of 24.9 µM, a TGI (CAKI-1 renal) of 42.7 µM and a GI50 (M14 melanoma) of 15.2 µM. The TGI (M14 melanoma) was 28.8 µM, the GI50 (SF-295 CNS) was 18.3 µM and the TGI (SF-295 CNS) was 37.2 µM. The GI50 (NCI-H23 lung) was 16.6 µM, the TGI (NCI-H23 lung) was 31.2 µM and the GI50 (IGROV1 ovarian) was 16.1 µM. For the same molecule, the TGI (IGROV1 ovarian) was 33.1 µM, the GI50 (NCI-H460 lung) was 16 µM and the TGI (NCI-H460 lung) was 29.9 µM. It also gave a GI50 (NCI-H522 lung) of 15.1 µM, a TGI (NCI-H522 lung) of 31.1 µM and a GI50 (UO-31 renal) of 16.6 µM. It also gave a TGI (UO-31 renal) of 31.5 µM, a GI50 (UACC-257 melanoma) of 20.1 µM and a TGI (UACC-257 melanoma) of 36.5 µM. It also gave a GI50 (MALME-3M melanoma) of 20.4 µM, a TGI (MALME-3M melanoma) of 35.5 µM and a GI50 (MDA-MB-231 breast) of 16.1 µM. It also gave a TGI (MDA-MB-231 breast) of 30.4 µM, a GI50 (HCT-15 colon) of 17.2 µM and a TGI (HCT-15 colon) of 31 µM. For the same molecule, the GI50 (OVCAR-5 ovarian) was 16 µM, the TGI (OVCAR-5 ovarian) was 29.5 µM and the GI50 (SK-MEL-5 melanoma) was 24.6 µM. It also gave a TGI (SK-MEL-5 melanoma) of 39.8 µM, a GI50 (PC-3 prostate) of 18.5 µM and a TGI (PC-3 prostate) of 35.5 µM. It also gave a GI50 (HOP-92 NSCLC) of 17.6 µM, a TGI (HOP-92 NSCLC) of 32.8 µM and a GI50 (HL-60(TB) leukemia) of 21.2 µM. The TGI (HL-60(TB) leukemia) was 45.6 µM, the GI50 (NCI/ADR-RES ovarian) was 18.8 µM and the TGI (NCI/ADR-RES ovarian) was 35.5 µM. It also gave a GI50 (BT-549 breast) of 18 µM, a TGI (BT-549 breast) of 32.3 µM and a GI50 (HCT-116 colon) of 16.7 µM. For the same molecule, the TGI (HCT-116 colon) was 30.3 µM, the GI50 (A549 NSCLC) was 19.1 µM and the TGI (A549 NSCLC) was 36.1 µM. The GI50 (CCRF-CEM leukemia) was 2.19 µM, the TGI (CCRF-CEM leukemia) was 19 µM and the GI50 (NCI-H226 lung) was 18.2 µM. The TGI (NCI-H226 lung) was 38.2 µM, the GI50 (786-0 renal) was 17.8 µM and the TGI (786-0 renal) was 31.7 µM. It also gave a GI50 (SF-268 CNS) of 16.9 µM, a TGI (SF-268 CNS) of 32.2 µM and a GI50 (HOP-62 NSCLC) of 18 µM. It also gave a TGI (HOP-62 NSCLC) of 32.3 µM, a GI50 (EKVX NSCLC) of 17.6 µM and a TGI (EKVX NSCLC) of 34.8 µM.
